Read-outs that look alike come from different tables or passages of the source.
Tests used:
VDR [1] = molecular target: T1, VDR (Homo sapiens, UniProt P11473); test: VDR agonism by induction of CYP24 gene expression (RT/PCR); type: cell-based; details: for VDR agonist activity and potency, induction of CYP24 gene expression / VDR agonism by induction of CYP24 gene expression: SCC25 cells; for VDR agonist activity and potency, induction of CYP24 gene expression: Fig. 1b, 1d; for induction of CYP24 by the compound was blocked: Fig. 1c, blocking agent not given; for VDR agonism by induction of CYP24 gene expression: screen at 10 µM, Fig. 1a
T1 construct: endogenous in cells; host or cells: SCC25 human head and neck squamous carcinoma cells
T1 sequence (P11473 1-427): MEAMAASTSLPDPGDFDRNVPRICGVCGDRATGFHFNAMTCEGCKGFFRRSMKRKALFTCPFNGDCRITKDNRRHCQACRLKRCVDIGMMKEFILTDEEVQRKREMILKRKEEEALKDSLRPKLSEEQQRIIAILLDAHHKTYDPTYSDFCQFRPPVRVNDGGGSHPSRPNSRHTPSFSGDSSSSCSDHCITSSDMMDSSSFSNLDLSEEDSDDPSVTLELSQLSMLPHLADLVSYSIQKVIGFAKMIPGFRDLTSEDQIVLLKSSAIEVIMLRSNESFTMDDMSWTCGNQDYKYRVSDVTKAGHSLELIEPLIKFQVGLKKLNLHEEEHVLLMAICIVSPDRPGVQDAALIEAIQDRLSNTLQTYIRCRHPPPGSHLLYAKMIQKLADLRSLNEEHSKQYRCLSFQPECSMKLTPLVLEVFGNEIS
Protocol: Cell culture. Human head and neck squamous carcinoma cell lines SCC4 and SCC45 and mouse HNSCC line AT84 were purchased from American Type Culture Collection (Manassas, VA) and cultured under recommended conditions. Cells were split at 60-70% confluence, as follows: cells were washed with filtered PBS, split with a 5-10 min incubation with 1 ml Trypsin-EDTA (Invitrogen, Carlsbad, CA) in PBS, collected with medium. Following centrifugation, the supernatant was removed. Cell pellets were resuspended with DMEM-F12, and distributed on fresh media-containing dishes. For treatments, AT84 cells were split and 24h later medium was changed to DMEM + 10% charcoal-stripped FBS.
RNA isolation and RT/PCR analysis. […]. Proc. Nat. Acad. Sci. U.S.A. 105, 8250-55. and Lamblin, M.et al Bioorganic & Medicinal Chemistry (2010) 18:4119-4137. After treatment, cells were washed with PBS, homogenized with 1ml TRIzol Reagent (Invitrogen, Carlsbad, CA), kept at room temperature for 2-5 min, collected and kept at -80 °C for at least 1h. After, thawing 0.2 ml chloroform was added. After vigorous mixing and storing for 10min, mixtures were centrifuged (10,000rpm, 15 min, 4 °C) and the upper transparent layer was transferred to a new tube. 0.5 ml isopropanol was added and the new solution was mixed. After centrifuging at 4 °C, the supernatant was discarded and 1ml of 75% ethanol was added. After centrifuging and discarding the supernatant, the pellet was air-dried for 5-10 min, and then dissolved in ddH2O. RNA concentrations were measured using a spectrophotometer, and 1-3µg of RNA were loaded for reverse transcriptase reactions (total volume: 20 µl). 80µl of ddH2O was added to the RT-product, and 1.5µl of that was used as template for the PCR reaction. Reverse transcriptase (Super Script II) was purchased from Invitrogen (Carlsbad, CA). DNA polymerase and dNTP's were ordered from Fermentas (Glen Burnie, MD).
(§1) Test compounds (10 µM) were first screened for VDR agonism by analysis of induction of CYP24 gene expression in 1,25D-sensitive human SCC25 cells. […]. Consistent with binding to the VDR, induction of CYP24 by compound JF-B01, compound JF-B53 or compound 16 (JF-B54) was blocked (Fig. 1c). […]

VDR [2] = molecular target: T1, VDR; test: Chromatin immunoprecipitation (ChIP) assay, CYP24 promoter, SCC25 cells; type: cell-based; details: Fig. 1e
Protocol: Chromatin immunoprecipitation assays. ChIP assays were performed with sonicated extracts of SCC25 cells as described (see Wang, T.-T. et al. J Immunol (2004) 173:2909-2912). […] Immunoprecipitations were performed using normal rabbit IgG, anti-VDR antibody (c-20) (Santa Cruz Biotechnology, Santa Cruz, CA). […].
as §1

SCC4 cells [3] = test: MTS cell proliferation assay; type: cell-based, human; details: vitamin D resistant SCC4 cells, Figures 7c, 8 and 9
Description: Dose-dependent effects of compounds on cell cycle progression was monitored using a CellTiter 96 Aqueous Non-Radioactive Cell Proliferation Assay Kit (Promega). The assay composed of solutions of a novel tetrazolium compound (MTS) and an electron coupling reagent (phenazine methosulfate; PMS). MTS is reduced by metabolically active cells into a soluble formazan product that absorbs at 490nm. The quantity of formazan product absorbing at 490nm is directly proportional to the number of living cells.

[4] = test system: total intracellular HDAC activity in SCC25 cells; test: HDACi activity with fluorogenic substrate in live cells; type: cell-based, human; details: increasing concentration, Fig. 2a, b
Description: (§2) This assay measures the inhibition of total intracellular HDAC activity and determines the capacity of compounds to inhibit HDACs in the form of their naturally occurring complexes.

[5] = test system: total intracellular HDAC activity in SCC4 cells; test: as above; type: cell-based, human; details: increasing concentration, Fig. 2a, b
Description: as §2

SCC25 cells = test: EdU cell growth assay; details: higher concentrations
Protocol: (§3) EdU cell growth assay. Click-iT EdU Alexa Fluor high-throughput imaging (HCS) assay for cell proliferation. HCS assays were performed on AT84 mouse squamous carcinoma cell line (ATCC) following the manufacturer's instruction (Molecular Probes, Invitrogen). […] All samples were in triplicate.

SCC4 cells [6] = test: EdU cell growth assay; details: for inhibition of proliferation, EdU incorporation: 1,25D-resistant SCC4 cells, Fig. 2e, f
Protocol: as §3

HDAC3 = HDAC3 (Homo sapiens, UniProt O15379); test: Fluorogenic HDAC inhibition assay, purified enzyme
HDAC3, sequence (O15379 whole entry, species assumed): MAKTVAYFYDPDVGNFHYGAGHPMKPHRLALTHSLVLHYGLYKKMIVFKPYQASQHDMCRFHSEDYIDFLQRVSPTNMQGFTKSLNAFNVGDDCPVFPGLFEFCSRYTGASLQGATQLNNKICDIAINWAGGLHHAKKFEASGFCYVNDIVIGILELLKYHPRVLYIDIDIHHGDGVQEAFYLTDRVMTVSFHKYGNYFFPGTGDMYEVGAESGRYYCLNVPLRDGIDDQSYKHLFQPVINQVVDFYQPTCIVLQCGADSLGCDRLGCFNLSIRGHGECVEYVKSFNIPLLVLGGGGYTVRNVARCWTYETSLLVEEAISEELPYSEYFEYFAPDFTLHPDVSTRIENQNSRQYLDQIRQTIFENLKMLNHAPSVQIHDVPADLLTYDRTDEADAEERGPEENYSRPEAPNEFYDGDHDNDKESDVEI
HDAC3, sequence (Q9Y618 395-489 partner limits assumed, species assumed): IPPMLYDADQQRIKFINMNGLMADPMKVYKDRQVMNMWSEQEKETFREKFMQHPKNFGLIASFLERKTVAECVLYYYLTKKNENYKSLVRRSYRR
Protocol: (§4) Fluorogenic HDAC inhibition assay. Boc-Lys(Ac)-7-amino-4-methylcoumarin (Boc-Lys(Ac)-AMC) was used as substrate for the HDAC assays. […] Trypsin was used to stop the reaction, releasing free AMC. The trypsin solution was prepared as follow: trypsin was dissolved in HDAC buffer to give a concentration of 10 mg/mL. Release of AMC was monitored by measuring the fluorescence at 460 nm (lex = 390 nm) with a microplate reader (SpectraMax Gemini) at 37 °C. The AMC signals were recorded against a blank with buffer, substrate and trypsin but without the enzyme. All experiments were carried out at least in triplicate.
(§5) For standard HDAC assays, 50 µL of HDAC buffer was mixed with 10 µL of diluted enzyme solution in HDAC buffer at room temperature. The HDAC reaction was started by adding 40 µL of substrate solution in HDAC buffer followed by 30 min of incubation with stirring at 37 °C. The reaction was stopped by adding 100 µL of trypsin solution. After a 10 min incubation with stirring at 37 °C, the release of AMC was monitored by measuring the fluorescence. For HDAC inhibition assays, inhibitor diluted in 50 µL of HDAC buffer was mixed with 10 µL of diluted enzyme solution in HDAC buffer at room temperature. The HDAC reaction was started by adding 40 µL of substrate solution in HDAC buffer followed by 30 min of incubation with stirring at 37 °C. The reaction was stopped by adding 100 µL of trypsin solution. After a 10 min incubation with stirring at 37 °C, the release of AMC was monitored by measuring the fluorescence.

HDAC6 = molecular target: T2, HDAC6 (Homo sapiens, UniProt Q9UBN7); test: Fluorogenic HDAC inhibition assay, purified enzyme
T2 sequence (Q9UBN7 1-1215): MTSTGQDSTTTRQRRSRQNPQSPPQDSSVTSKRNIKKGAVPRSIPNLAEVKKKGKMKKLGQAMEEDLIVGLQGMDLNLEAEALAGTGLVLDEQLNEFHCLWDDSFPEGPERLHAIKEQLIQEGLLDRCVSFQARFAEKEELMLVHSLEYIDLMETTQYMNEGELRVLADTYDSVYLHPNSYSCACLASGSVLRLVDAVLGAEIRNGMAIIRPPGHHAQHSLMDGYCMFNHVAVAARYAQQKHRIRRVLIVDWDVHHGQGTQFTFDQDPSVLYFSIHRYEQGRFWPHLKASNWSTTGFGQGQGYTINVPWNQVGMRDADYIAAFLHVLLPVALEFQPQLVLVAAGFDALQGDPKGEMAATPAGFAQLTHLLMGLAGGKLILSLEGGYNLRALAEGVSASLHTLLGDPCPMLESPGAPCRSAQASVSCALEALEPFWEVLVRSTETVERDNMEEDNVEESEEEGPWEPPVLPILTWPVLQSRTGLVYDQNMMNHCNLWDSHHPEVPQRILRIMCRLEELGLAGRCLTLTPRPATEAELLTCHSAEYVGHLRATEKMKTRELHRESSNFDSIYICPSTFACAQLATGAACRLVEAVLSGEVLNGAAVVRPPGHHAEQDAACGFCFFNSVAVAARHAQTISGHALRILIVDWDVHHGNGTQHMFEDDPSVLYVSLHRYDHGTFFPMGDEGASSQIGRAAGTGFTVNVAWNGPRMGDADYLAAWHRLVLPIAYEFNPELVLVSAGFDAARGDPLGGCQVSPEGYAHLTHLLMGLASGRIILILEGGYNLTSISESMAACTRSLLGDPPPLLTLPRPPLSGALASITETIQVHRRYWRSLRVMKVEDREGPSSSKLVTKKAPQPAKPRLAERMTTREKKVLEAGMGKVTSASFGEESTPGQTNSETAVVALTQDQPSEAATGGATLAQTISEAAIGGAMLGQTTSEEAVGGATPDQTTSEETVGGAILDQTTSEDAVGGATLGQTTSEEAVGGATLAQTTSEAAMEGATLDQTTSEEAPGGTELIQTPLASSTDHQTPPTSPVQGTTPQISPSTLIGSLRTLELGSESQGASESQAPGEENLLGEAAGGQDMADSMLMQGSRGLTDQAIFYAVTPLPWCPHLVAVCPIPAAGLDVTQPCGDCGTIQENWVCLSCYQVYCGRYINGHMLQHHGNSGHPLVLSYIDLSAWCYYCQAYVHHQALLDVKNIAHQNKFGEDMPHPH
Protocol: as §4, §5

SCC4 cells [7] = test: LDH cytotoxicity assay; type: cell-based, human; details: vitamin D resistant SCC4 cells, Figures 10 and 11
Protocol: The cytotoxic effects of compounds were screened using a Cytotoxicity Assay Kit (Cayman Chemical), which measures release of the soluble […] enzyme lactate dehydrogenase (LDH) from dying cells into the culture medium using a coupled two-step reaction. LDH in the media catalyzes the reduction of NAD+ to NADH and H+ by oxidation of lactate to pyruvate. LDH-catalyzed NADH production is then measured by following diaphorase catalyzed NADH-dependent reduction of a tetrazolium salt (INT) to highly-colored formazan which absorbs strongly at 490-520 nm.
The proliferation assays above indicated the cessation of growth.

AT84 cells = test: EdU cell growth assay; details: 1,25D-sensitive AT84 cells, Fig. 2d
Protocol: as §3

| Structure (SMILES) | VDR agonist activity and potency, induction of CYP24 gene expression (VDR [1]) | antiproliferative potency (SCC4 cells [3]) | inhibition of proliferation, EdU incorporation (SCC4 cells [6]) | IC50 (HDAC3) [µM] | IC50 (HDAC6) [µM] | cytotoxicity, LDH release (SCC4 cells [7]) | further results |
| --- | --- | --- | --- | --- | --- | --- | --- |
| CCC(CC)(c1ccc(OCC(=O)NO)c(C)c1)c1ccc(OC[C@@H](O)C(C)(C)C)c(C)c1 [JF-C72, N-Hydroxy-2-(4-(3-(4-((2S)-hydroxy-3,3-dimethylbutoxy)-3-methylphenyl)pentan-3-yl)-2-methylphenoxy)acetamide] | VDR agonists with similar potencies | low micromolar potency | – | – | – | – | binding of the VDR to the vitamin D response element in the proximal promoter of the CYP24 gene (VDR [2]): induced binding of the VDR |
| CCC(O)(CC)COc1ccc(C(CC)(CC)c2ccc(OCC(=O)NO)c(C)c2)cc1C [JF-B54, 2-(4-(3-(4-(2-Ethyl-2-hydroxybutoxy)-3-methylphenyl)pentan-3-yl)-2-methylphenoxy)-N-hydroxyacetamide] | VDR agonist activity, but with reduced potency | – | completely | 29.9 | 31.5 | – | induction of CYP24 by the compound was blocked (VDR [1]): blocked; HDACi activity, substrate deacetylation [4]: most potent; HDACi activity, substrate deacetylation [5]: most potent; EdU incorporation at higher concentrations (SCC25 cells): completely abolished EdU incorporation; EdU incorporation at higher concentrations (SCC4 cells [6]; SCC4 cells, higher concentrations): completely abolished EdU incorporation |
| CCC(CC)(c1ccc(OCC(O)C(C)(C)C)c(C)c1)c1ccc(OCC(=O)NO)c(Br)c1 (stereo not shown) [DK-309, 2-(2-bromo-4-(3-(4-(2-hydroxy-3,3-dimethylbutoxy)-3-methylphenyl)pentan-3-yl)phenoxy)-N-hydroxyacetamide] | – | – | – | – | – | good cytotoxicity | – |
| CCC(CC)(c1ccc(OCC(=O)NO)c(C)c1)c1ccc(OC[C@H](O)C(C)(C)C)c(C)c1 [JF-C71, N-Hydroxy-2-(4-(3-(4-((2R)-hydroxy-3,3-dimethylbutoxy)-3-methylphenyl)pentan-3-yl)-2-methylphenoxy)acetamide] | VDR agonists with similar potencies | low micromolar potency | – | 22 | 26.1 | – | binding of the VDR to the vitamin D response element in the proximal promoter of the CYP24 gene (VDR [2]): induced binding of the VDR |
| CCC(CC)(c1ccc(OCC(O)C(C)(C)C)c(C)c1)c1c[nH]c2cc(CCC(=O)NO)ccc12 (stereo not shown) [DK-222, N-hydroxy-3-(3-(3-(4-(2-hydroxy-3,3-dimethylbutoxy)-3-methylphenyl)pentan-3-yl)-1H-indol-6-yl)propanamide] | – | low micromolar potency | – | – | – | good cytotoxicity | – |
| CCC(CC)(c1ccc(OCC(=O)NO)c(C)c1)c1ccc(OCC(C)(C)O)c(C)c1 [JF-B53, N-Hydroxy-2-(4-(3-(4-(2-hydroxy-2-methylpropoxy)-3-methylphenyl)pentan-3-yl)-2-methylphenoxy)acetamide] | VDR agonist activity, but with reduced potency | – | partially blocked EdU incorporation | 17 | 33.3 | – | induction of CYP24 by the compound was blocked (VDR [1]): blocked |
| CCC(CC)(c1ccc(OCC(=O)NO)cc1)c1ccc(OCC(O)C(C)(C)C)c(C)c1 (stereo not shown) [DK-366, N-hydroxy-2-(4-(3-(4-(2-hydroxy-3,3-dimethylbutoxy)-3-methylphenyl)pentan-3-yl)phenoxy)acetamide] | – | low micromolar potency | – | – | 6.6 to 8.2 | good cytotoxicity | – |
| CCC(CC)(c1ccc(OCC(=O)NO)c(C)c1)c1ccc(OCC(=O)NO)c(C)c1 [JF-B06] | – | – | – | – | 4.7 | – | VDR agonism by induction of CYP24 gene expression (VDR [1]): completely inactive; inhibition of proliferation, EdU incorporation (AT84 cells): failed to block AT84 proliferation; IC50 (HDAC6; read-out: HDAC6 IC50, purified enzyme in vitro): 4.7 µM |
| CCC(CC)(c1ccc(OCC(=O)NO)c(C)c1)c1ccc(OCC(CO)CO)c(C)c1 [JF-B21] | – | – | failed to block SCC4 proliferation | 36.1 | 37.9 | – | VDR agonism by induction of CYP24 gene expression (VDR [1]): completely inactive; inhibition of proliferation, EdU incorporation (AT84 cells): failed to block AT84 proliferation |

— patent EP2794556B1, “BIS-(ARYL/HETEROARYL)-METHYLENE COMPOUNDS, PHARMACEUTICAL COMPOSITIONS CONTAINING SAME AND THEIR USE FOR TREATING CANCER” (Gleason, James L., priority 2011, dated 2013)
